# Laboratory results from patent US8354403B2, “Pyrrolidine derived beta 3 adrenergic receptor agonists” (Merck Sharp & Dohme Corp., priority 2009, dated 2013).
# Biological target: T1, human β3 adrenergic receptor (Homo sapiens, UniProt P13945)
# T1 construct: expressed in transfected cells; host or cells: Chinese hamster ovary (CHO) cells, stably transfected
# Assay: Beta-3 agonist in vitro functional assay: cAMP production (LANCE TR-FRET) in CHO cells stably transfected with the cloned β3 receptor
# Format: cell-based
# Settings: Table 4; cAMP, CHO cells; read-out: Human β3 agonist functional activity
# Procedure, shortened: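 CHO cells stably expressing the cloned receptor, in HEPES-buffered HBSS with BSA and 0.6 mM IBMX, 6,000 cells/well, exposed to compound for 30 min at RT. cAMP read by LANCE TR-FRET against a cAMP standard curve. Isoproterenol defines maximal stimulation.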
# T1 sequence (P13945 whole entry): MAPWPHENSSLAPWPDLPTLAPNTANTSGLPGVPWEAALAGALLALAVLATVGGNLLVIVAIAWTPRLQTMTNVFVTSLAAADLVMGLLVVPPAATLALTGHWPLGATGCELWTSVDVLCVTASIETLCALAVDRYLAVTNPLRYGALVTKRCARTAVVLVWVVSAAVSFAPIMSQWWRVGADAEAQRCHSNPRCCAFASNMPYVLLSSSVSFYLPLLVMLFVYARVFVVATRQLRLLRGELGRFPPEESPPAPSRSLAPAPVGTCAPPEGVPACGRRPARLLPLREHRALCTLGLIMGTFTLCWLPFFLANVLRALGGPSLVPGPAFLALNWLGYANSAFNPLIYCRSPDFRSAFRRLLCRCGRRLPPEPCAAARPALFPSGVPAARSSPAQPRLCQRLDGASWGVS
row,EC50 [nM],Structure (SMILES)
1,10 to 99.9,O=C(c1ccc(C[C@@H]2CC[C@H]([C@H](O)c3ccccc3)N2)cc1)N1CC2CC(n3ccnn3)CC2C1 (stereo partly drawn) [Example 21]
2,10 to 99.9,O=C(c1ccc(C[C@@H]2CC[C@H]([C@H](O)c3ccccc3)N2)cc1)N1CC2CC(n3nccn3)CC2C1 (stereo partly drawn) [Example 20]
3,100 to 999,CN(C)C1CCN(C(=O)c2ccc(C[C@@H]3CC[C@H]([C@H](O)c4ccccc4)N3)cc2)C1 (stereo partly drawn) [Example 9]
4,999 to 3000,O=C(c1ccc(C[C@@H]2CC[C@H]([C@H](O)c3ccccc3)N2)cc1)N1CCc2onc(O)c2C1 [Example 53]
5,100 to 999,O=C(c1ccc(C[C@@H]2CC[C@H]([C@H](O)c3ccccc3)N2)cc1)N1Cc2cncnc2C1 [Example 25]

# Same assay, conditions: Table 5; cAMP, CHO cells; read-out: Human β3 agonist functional activity
row,EC50 [nM],Structure (SMILES)
1,100 to 999,O=C(c1ccc(C[C@@H]2CC[C@H]([C@H](O)c3ccccc3)N2)cc1)N1CCC(Cn2cnccc2=O)CC1 [Example 149]
2,100 to 999,O=C(c1ccc(C[C@@H]2CC[C@H]([C@H](O)c3cccnc3)N2)cc1)N1CCC(S(=O)(=O)c2cccc(F)c2)CC1 [Example 131]
3,10 to 99.9,O=C(c1ccc(C[C@@H]2CC[C@H]([C@H](O)c3ccccc3)N2)cc1)N1CCC(Oc2ccccn2)CC1 [Example 152]
4,100 to 999,Cc1cnnn1C1CCN(C(=O)c2ccc(C[C@@H]3CC[C@H]([C@H](O)c4ccccc4)N3)cc2)CC1 [Example 96]
5,10 to 99.9,CC(C1CCN(C(=O)c2ccc(C[C@@H]3CC[C@H]([C@H](O)c4ccccc4)N3)cc2)CC1)n1cnccc1=O (stereo partly drawn) [Example 166]
6,100 to 999,CNC(=O)c1ccccc1OC1CCN(C(=O)c2ccc(C[C@@H]3CC[C@H]([C@H](O)c4ccccc4)N3)cc2)CC1 [Example 157]
7,10 to 99.9,O=C(c1ccc(C[C@@H]2CC[C@H]([C@H](O)c3ccccc3)N2)cc1)N1CCC(COc2cnccn2)CC1 [Example 161]
8,10 to 99.9,COc1ccc(CC2CCN(C(=O)c3ccc(C[C@@H]4CC[C@H]([C@H](O)c5ccccc5)N4)cc3)CC2)cc1F [Example 147]
9,10 to 99.9,O=C(c1ccc(C[C@@H]2CC[C@H]([C@H](O)c3ccccc3)N2)cc1)N1CCC(n2cnnn2)CC1 [Example 100]
10,10 to 99.9,O=C(c1ccc(C[C@@H]2CC[C@H]([C@H](O)c3ccccc3)N2)cc1)N1CCC(n2cc(-c3ccccc3)[nH]c2=O)CC1 [Example 84]
11,100 to 999,Cc1nnn(C2CCN(C(=O)c3ccc(C[C@@H]4CC[C@H]([C@H](O)c5ccccc5)N4)cc3)CC2)n1 [Example 104]
12,100 to 999,O=C(c1ccc(C[C@@H]2CC[C@H]([C@H](O)c3ccccc3)N2)cc1)N1CCC(c2nc(-c3cnccn3)no2)CC1 [Example 83]
13,10 to 99.9,COC(=O)c1ccccc1C1CCN(C(=O)c2ccc(C[C@@H]3CC[C@H]([C@H](O)c4ccccc4)N3)cc2)CC1 [Example 111]
14,100 to 999,Cc1cncn1C1CCN(C(=O)c2ccc(C[C@@H]3CC[C@H]([C@H](O)c4ccccc4)N3)cc2)CC1 [Example 86]
15,100 to 999,O=C(O)c1cc(OC2CCN(C(=O)c3ccc(C[C@@H]4CC[C@H]([C@H](O)c5ccccc5)N4)cc3)CC2)no1 [Example 160]

# Same assay, conditions: Table 7; cAMP, CHO cells; ranges as given for Tables 6 and 7; read-out: Human β3 agonist functional activity
row,EC50 [nM],Structure (SMILES)
1,10 to 99.9,N#CC1(c2ccccn2)C2CN(C(=O)c3ccc(C[C@@H]4CC[C@H]([C@H](O)c5ccccc5)N4)cc3)CC21 (stereo partly drawn) [Example 238]
2,100 to 999,O=C(c1ccc(CC2CCC(C(O)c3ccccc3)N2)cc1)N1CC2C(C1)C2Cn1nccn1 (stereo not drawn) [Example 232]
3,< 1,O=C(OCc1ccccc1)C1C2CN(C(=O)c3ccc(C[C@@H]4CC[C@H]([C@H](O)c5ccccc5)N4)cc3)CC21 (stereo partly drawn) [Example 229]

# Same assay, conditions: Table 8; Beta-3 agonist in vitro functional assay; read-out: Human β3 agonist functional activity
row,EC50 [nM],Structure (SMILES)
1,1 to 9.9,O=C(c1ccc(C[C@@H]2CC[C@H]([C@H](O)c3ccccc3)N2)cc1)N1CCC2(CC1)CCN(Cc1ccccc1)C2=O [Example 255]
2,10 to 99.9,O=C(c1ccc(C[C@@H]2CC[C@H]([C@H](O)c3ccccc3)N2)cc1)N1CCC2(CCc3cnoc32)CC1 [Example 322]
3,100 to 999,O=C(c1ccc(C[C@@H]2CC[C@H]([C@H](O)c3ccccc3)N2)cc1)N1CCC2(CC1)CC(c1ccc(F)cc1)CO2 (stereo partly drawn) [Example 310]
4,1 to 9.9,O=C1CC2(CCN(C(=O)c3ccc(C[C@@H]4CC[C@H]([C@H](O)c5ccccc5)N4)cc3)CC2)S(=O)(=O)c2sccc21 [Example 340]
5,< 1,O=C(c1ccc(C[C@@H]2CC[C@H]([C@H](O)c3ccccc3)N2)cc1)N1CCC2(CC1)C(=O)NCC2c1cccc(C(F)(F)F)c1 (stereo partly drawn) [Example 264]
6,10 to 99.9,O=C1CCC2(CCN(C(=O)c3ccc(C[C@@H]4CC[C@H]([C@H](O)c5ccccc5)N4)cc3)CC2)O1 [Example 273]
7,1 to 9.9,O=C1OC2(CCN(C(=O)c3ccc(C[C@@H]4CC[C@H]([C@H](O)c5cccnc5)N4)cc3)CC2)CC1Cc1ccc(F)cc1 (stereo partly drawn) [Example 277]
8,10 to 99.9,O=C(c1ccc(C[C@@H]2CC[C@H]([C@H](O)c3ccccc3)N2)cc1)N1CCC2(CCCO2)CC1 [Example 307]

# Same assay, conditions: Table 9; Beta-3 agonist in vitro functional assay; read-out: Human β3 agonist functional activity
row,EC50 [nM],Structure (SMILES)
1,10 to 99.9,O=C(c1ccc(C[C@@H]2CC[C@H]([C@H](O)c3ccccc3)N2)cc1)N1CCN(c2ccccc2O)CC1 [Example 359]
2,10 to 99.9,O=C(c1ccc(C[C@@H]2CC[C@H]([C@H](O)c3ccccc3)N2)cc1)N1CCN(c2ncccc2Cl)CC1 [Example 358]
3,10 to 99.9,CC(C)Oc1cccnc1N1CCN(C(=O)c2ccc(C[C@@H]3CC[C@H]([C@H](O)c4ccccc4)N3)cc2)CC1 [Example 363]
4,10 to 99.9,COc1ccccc1CN1CCN(C(=O)c2ccc(C[C@@H]3CC[C@H]([C@H](O)c4ccccc4)N3)cc2)CC1 [Example 409]
5,10 to 99.9,C[C@@H](c1ccccn1)N1CCN(C(=O)c2ccc(C[C@@H]3CC[C@H]([C@H](O)c4ccccc4)N3)cc2)CC1 [Example 431]
6,100 to 999,O=C(c1ccc(C[C@@H]2CC[C@H]([C@H](O)c3ccccc3)N2)cc1)N1CCN(c2ncccc2F)CC1 [Example 357]
7,10 to 99.9,CC(c1ncccc1F)N1CCN(C(=O)c2ccc(C[C@@H]3CC[C@H]([C@H](O)c4ccccc4)N3)cc2)CC1 (stereo partly drawn) [Example 425]
8,100 to 999,O=C(O)[C@@H]1CCCN1C(=O)CN1CCN(C(=O)c2ccc(C[C@@H]3CC[C@H]([C@H](O)c4ccccc4)N3)cc2)CC1 [Example 391]
9,10 to 99.9,COc1cccnc1CN1CCN(C(=O)c2ccc(C[C@@H]3CC[C@H]([C@H](O)c4ccccc4)N3)cc2)CC1 [Example 414]
10,10 to 99.9,O=C(c1ccc(C[C@@H]2CC[C@H]([C@H](O)c3ccccc3)N2)cc1)N1CCN(Cc2cnccn2)CC1 [Example 426]

# Same assay, conditions: Table 10; Beta-3 agonist in vitro functional assay; read-out: Human β3 agonist functional activity
row,EC50 [nM],Structure (SMILES)
1,1 to 9.9,CC(C(=O)NCC1(C)CCC1)N1CCN(C(=O)c2ccc(C[C@@H]3CC[C@H]([C@H](O)c4ccccc4)N3)cc2)CC1 (stereo partly drawn) [Example 453]
2,100 to 999,CC(C(=O)N(C)C(C)(C)C)N1CCN(C(=O)c2ccc(C[C@@H]3CC[C@H]([C@H](O)c4ccccc4)N3)cc2)CC1 (stereo partly drawn) [Example 517]
3,100 to 999,CC(C(=O)N1CCCCCC1)N1CCN(C(=O)c2ccc(C[C@@H]3CC[C@H]([C@H](O)c4ccccc4)N3)cc2)CC1 (stereo partly drawn) [Example 511]
4,10 to 99.9,CCN(C(=O)C(C)N1CCN(C(=O)c2ccc(C[C@@H]3CC[C@H]([C@H](O)c4ccccc4)N3)cc2)CC1)C(C)C (stereo partly drawn) [Example 515]
5,1 to 9.9,CC(C(=O)N1CCc2ccc(Cl)cc2C1)N1CCN(C(=O)c2ccc(C[C@@H]3CC[C@H]([C@H](O)c4ccccc4)N3)cc2)CC1 (stereo partly drawn) [Example 510]
6,10 to 99.9,CC(C(=O)N1C(C)CCC1C)N1CCN(C(=O)c2ccc(C[C@@H]3CC[C@H]([C@H](O)c4ccccc4)N3)cc2)CC1 (stereo partly drawn) [Example 479]
7,10 to 99.9,CC(C(=O)N1C[C@H](F)[C@@H](F)C1)N1CCN(C(=O)c2ccc(C[C@@H]3CC[C@H]([C@H](O)c4ccccc4)N3)cc2)CC1 (stereo partly drawn) [Example 476]
8,1 to 9.9,CC(C(=O)N1CCc2ccc(F)cc2C1)N1CCN(C(=O)c2ccc(C[C@@H]3CC[C@H]([C@H](O)c4ccccc4)N3)cc2)CC1 (stereo partly drawn) [Example 509]
9,10 to 99.9,CC(C(=O)N1CCCCC12CC2)N1CCN(C(=O)c2ccc(C[C@@H]3CC[C@H]([C@H](O)c4ccccc4)N3)cc2)CC1 (stereo partly drawn) [Example 493]
10,10 to 99.9,COC1CN(C(=O)C(C)N2CCN(C(=O)c3ccc(C[C@@H]4CC[C@H]([C@H](O)c5ccccc5)N4)cc3)CC2)C1 (stereo partly drawn) [Example 473]
11,10 to 99.9,CC(C(=O)N1CCCC2(CCCCO2)C1)N1CCN(C(=O)c2ccc(C[C@@H]3CC[C@H]([C@H](O)c4ccccc4)N3)cc2)CC1 (stereo partly drawn) [Example 498]

row,Structure (SMILES),EC50 [nM]
1,CC(C(=O)N1[C@H]2CC[C@@H]1CC2)N1CCN(C(=O)c2ccc(C[C@@H]3CC[C@H]([C@H](O)c4ccccc4)N3)cc2)CC1 (stereo partly drawn) [Example 501],100 to 999

# Same assay, conditions: Table 11; cAMP, CHO cells; read-out: Human β3 agonist functional activity
row,EC50 [nM],Structure (SMILES)
1,100 to 999,C[C@H](c1ccccn1)N1CC2CC1CN2C(=O)c1ccc(C[C@@H]2CC[C@H]([C@H](O)c3ccccc3)N2)cc1 (stereo partly drawn) [Example 537]
2,100 to 999,O=C(c1ccc(C[C@@H]2CC[C@H]([C@H](O)c3ccccc3)N2)cc1)N1CCn2cnnc2C1 [Example 548]
3,10 to 99.9,C[C@H]1CN(C(=O)c2ccc(C[C@@H]3CC[C@H]([C@H](O)c4ccccc4)N3)cc2)CCN1Cc1ccccn1 [Example 528]

row,Structure (SMILES),EC50 [nM]
1,C[C@@H](c1ccccn1)N1C2CCC1CN(C(=O)c1ccc(C[C@@H]3CC[C@H]([C@H](O)c4ccccc4)N3)cc1)C2 [Example 540],100 to 999

# Same assay, conditions: Table 12; human β3 functional activity given as ranges; read-out: Human β3 agonist functional activity
row,EC50 [nM],Structure (SMILES)
1,1 to 9.9,"CCC1CC2(CCN(C(=O)c3ccc(CC4CCC(C(O)c5ccccc5)N4)cc3)CC2)C(=O)O1 (single isomer, unassigned) [Example 563]"
2,100 to 999,"CC(c1cccnn1)N1CCN(C(=O)c2ccc(CC3CCC(C(O)c4ccccc4)N3)cc2)CC1 (single isomer, unassigned) [Example 592]"
3,100 to 999,"O=C1CC(c2ccccc2)C2(CCN(C(=O)c3ccc(CC4CCC(C(O)c5cccnc5)N4)cc3)CC2)O1 (single isomer, unassigned) [Example 559]"
